# Experimental data as given in PubChem BioAssay AID1259408 (Genetic Toxicology Data Bank (GENE-TOX), 2018).
# Active and inactive are the calls of the source. No rule for the calls is given here.
# Tested on: GENE-TOX genotoxicity assays, various organisms and cells
# Assay: GENE-TOX mutagenicity studies
# [1] = Species/Cell Type: Salmonella typhimurium (one or more of the five standard strains: TA98, TA100, TA1535, TA1537, and TA1538), Assay Type: Histidine reverse gene mutation, Ames assay, Assay Code: SAL+*, Activation: With metabolic activation, Evaluation Type: Evaluation A (Pre-1980)
# [2] = Species/Cell Type: Salmonella typhimurium (one or more of the five standard strains: TA98, TA100, TA1535, TA1537, and TA1538), Assay Type: Histidine reverse gene mutation, Ames assay, Assay Code: SALT, Evaluation Type: Evaluation A (Pre-1980)
# [3] = Species/Cell Type: Mammalian polychromatic erythrocytes, Assay Type: Micronucleus test, chromosome aberrations, Assay Code: MNTT, Evaluation Type: Evaluation B (Post-1980)
# [4] = Species/Cell Type: Salmonella typhimurium (one or more of the five standard strains: TA98, TA100, TA1535, TA1537, and TA1538), Assay Type: Histidine reverse gene mutation, Ames assay, Assay Code: SAL+, Evaluation Type: Evaluation A (Pre-1980)
smiles,measurement,setting,value
O=P1(NCCCl)OCCCN1CCCl (centres undefined),mutagenic call,"Species/Cell Type: Drosophila melanogaster, Assay Type: Aneuploidy, partial sex chromosome loss, chromosome aberrations, Assay Code: DAP-M, Evaluation Type: Evaluation A (Pre-1980)",inactive; negative
same,mutagenic call,"Species/Cell Type: Drosophila melanogaster, Assay Type: Aneuploidy, whole sex chromosome loss, chromosome aberrations, Assay Code: DAC-M, Evaluation Type: Evaluation A (Pre-1980)",inactive; negative
same,mutagenic call,"Species/Cell Type: Drosophila melanogaster, Assay Type: Sex-linked recessive lethal gene mutation, Assay Code: SRL+, Evaluation Type: Evaluation A (Pre-1980)",active; positive
same,mutagenic call,"Species/Cell Type: Mammalian polychromatic erythrocytes, Assay Type: Micronucleus test, chromosome aberrations, Assay Code: MNT+, Evaluation Type: Evaluation A (Pre-1980)",active; positive
same,call,"Species/Cell Type: Nonhuman, Assay Type: In vivo carcinogenicity studies, Assay Code: CCG+, Evaluation Type: Evaluation A (Pre-1980)",active; positive
same,mutagenic call,"Species/Cell Type: Saccharomyces cerevisiae, Assay Type: Forward and reverse gene mutation, mitotic recombination and gene conversion, DNA effects, body fluid assay, Assay Code: BFC+, Evaluation Type: Evaluation A (Pre-1980)",active; positive
same,mutagenic call,"Species/Cell Type: Saccharomyces cerevisiae, Assay Type: Forward and reverse gene mutation, mitotic recombination and gene conversion, host-mediated assay, Assay Code: HMET, Evaluation Type: Evaluation A (Pre-1980)",no conclusion
same,mutagenic call,"Species/Cell Type: Saccharomyces cerevisiae, Assay Type: Mitotic recombination or gene conversion, Assay Code: YEC+*, Activation: With metabolic activation, Evaluation Type: Evaluation A (Pre-1980)",active; positive
same,mutagenic call,[1],active; positive
Cc1ncc(COP(=O)(O)O)c(C)c1O,mutagenic call,"Species/Cell Type: Human lymphocytes, Assay Type: Sister-chromatid exchange (SCE) in vitro, Assay Code: SCL+D, Dose Response: With dose response, Evaluation Type: Evaluation B (Post-1980)",active; positive
same,mutagenic call,"Species/Cell Type: Human, Assay Type: Sister-chromatid exchange (SCE) in vitro, Assay Code: SC1+D, Dose Response: With dose response, Evaluation Type: Evaluation B (Post-1980)",active; positive
COC(=O)N/N=C/c1c[n+]([O-])c2ccccc2[n+]1[O-],mutagenic call,"Species/Cell Type: Mammalian polychromatic erythrocytes, Assay Type: Micronucleus test, chromosome aberrations, Assay Code: MNT+, Evaluation Type: Evaluation B (Post-1980)",active; positive
Cc1c2ccccc2c(C)c2c1cc(F)c1ccccc12,mutagenic call,"Species/Cell Type: Chinese hamster lung (V79) cells, Assay Type: Forward gene mutation at the HPRT or ouabain locus, Assay Code: V79-*, Activation: With metabolic activation, Evaluation Type: Evaluation A (Pre-1980)",inactive; negative
O=C1CCc2ccc3c(ccc4ccccc43)c21,mutagenic call,[1],active; positive
Nc1nc(-c2ccc([N+](=O)[O-])[nH]2)cs1,mutagenic call,[2],no conclusion
CC(C)(O)C(Cl)(Cl)Cl,mutagenic call,[3],no conclusion
CO[C@@H]1CC(O[C@H]2CC[C@@]3(C=O)[C@](O)(CC[C@]4(C)[C@]3(C)CC[C@]3(C)[C@@H](C5=CC(=O)OC5)CC[C@@]43O)C2)O[C@H](C)C1O[C@H]1C[C@@H](CO)[C@H](O)[C@@H](O)[C@@H]1O (some centres undefined),mutagenic call,"Species/Cell Type: Nonhuman, Assay Type: Sister-chromatid exchange (SCE) in vitro, Assay Code: SC2-, Evaluation Type: Evaluation B (Post-1980)",inactive; negative
CC(=O)c1ccc([N+](=O)[O-])s1,mutagenic call,[4],active; positive
Cc1ccc2ccc3c4ccccc4ccc3c2c1,mutagenic call,[1],active; positive
CN(C)C(=O)Nc1ccc(Oc2ccc(Cl)cc2)cc1,mutagenic call,"Species/Cell Type: Saccharomyces cerevisiae, Assay Type: Mitotic recombination or gene conversion, Assay Code: YEC-, Evaluation Type: Evaluation A (Pre-1980)",inactive; negative
O=[N+]([O-])c1ccc(/C=C/c2nccn2Cc2ccccc2)o1,mutagenic call,"Species/Cell Type: Neurospora crassa, Assay Type: Reverse gene mutation, Assay Code: NER+, Evaluation Type: Evaluation A (Pre-1980)",active; positive
OC[P+](CO)(CO)CO,mutagenic call,[3],no conclusion
CN(C)N=Nc1cccc(O)c1,mutagenic call,"Species/Cell Type: Drosophila melanogaster, Assay Type: Sex-linked recessive lethal gene mutation, Assay Code: SRLT, Evaluation Type: Evaluation A (Pre-1980)",no conclusion
same,mutagenic call,"Species/Cell Type: Saccharomyces cerevisiae, Assay Type: Mitotic recombination or gene conversion, Assay Code: YEC+, Evaluation Type: Evaluation A (Pre-1980)",active; positive
CCSc1nc2c(c(=O)n(C)c(=O)n2C)n1C,mutagenic call,"Species/Cell Type: Allium cepa, Assay Type: Chromosome aberrations, Assay Code: ALC+D, Dose Response: With dose response, Evaluation Type: Evaluation A (Pre-1980)",active; positive
O=S(O)S(=O)(=O)O,mutagenic call,[3],no conclusion
same,mutagenic call,"Species/Cell Type: Nonhuman, Assay Type: Sister-chromatid exchange (SCE) in vitro, Assay Code: SC2T, Evaluation Type: Evaluation A (Pre-1980)",no conclusion
same,mutagenic call,"Species/Cell Type: Nonhuman, Assay Type: Sister-chromatid exchange (SCE) in vivo, Assay Code: SC3-, Evaluation Type: Evaluation B (Post-1980)",inactive; negative
CCOC(=O)/C=C(C)/C=C/C=C(C)/C=C/c1c(C)cc(OC)c(C)c1C,mutagenic call,"Species/Cell Type: Human, Assay Type: Sister-chromatid exchange (SCE) in vitro, Assay Code: SC1+D, Dose Response: With dose response, Evaluation Type: Evaluation A (Pre-1980)",active; positive
same,mutagenic call,[3],no conclusion
same,mutagenic call,"Species/Cell Type: Nonhuman, Assay Type: Sister-chromatid exchange (SCE) in vitro, Assay Code: SC2T, Evaluation Type: Evaluation B (Post-1980)",no conclusion
ONc1ccc(-c2ccccc2)cc1,mutagenic call,[4],active; positive
O=C(O)c1cc(N=Nc2ccc([N+](=O)[O-])cc2)ccc1O,mutagenic call,[2],no conclusion
c1ccc2cnccc2c1,mutagenic call,[2],no conclusion
